Results reported in patent US8242282B2, “Histone deacetylase inhibitors” (Taipei Medical University, priority 2010, dated 2012).

Columns and labels:
[1] = tested on: IMR90 cells; assay: In vitro wound healing activity (scrape wound, cell migration); format: cell-based; details: 24 hours, Compound 1 0.1, 0.5, 1 mM, Compound 3 0.05, 0.5, 1 μM
Method: The wound healing activities of Compounds 1 and 3 were in vitro assessed by the method provided in Valster et al., Methods, 2005, 37, 208-215 and Rodriguez et al., “Methods in Molecular Biology” in Cell Migration: Developmental Methods and Protocols, vol. 294, Ed by Guan et al. Humana. Press Inc.
IMR90 cells were seeded on a six-well culture dish and grown in MEM medium with 10% FBS to confluence in the presence of serum. The growth medium (MEM with 10% FBS) was then replaced with a serum-free medium (MEM without FBS). After starved for 24 hours, wounds were made by scraping using a P1000 pipette tip. […] The wounds were observed by a phase contrast microscopy using an inverted microscope. Images were taken at areas flanking the intersections of the wounds and the marker lines at regular intervals over a period of 24 hours. These images were analyzed through a digital imaging system using Image-Pro Plus® (Media Cybernetics, Silver Spring, Md.) to determine the position of the migrating cells at the wound edges. The cell migration distance was calculated by substracting the width of the wound at each interval from its initial width.

[2] = tested on: 5-FU-induced mucositis; assay: In vivo anti-mucositis activity (5-FU, buccal pouch wound); design: species or system Syrian golden hamsters; details: hamster, subcutaneous once a day Day 0 to Day 5; Compound 1 36, 72, 144 mg/kg; Compound 3 0.5, 5.0, 50.0 mg/kg; dose-dependent
Method: Twenty young Syrian golden hamsters, 7 to 8 weeks old weighing 90 to 130 g, were numbered and randomly divided into five groups (4 hamsters each group).
Each hamster in the five groups was punched at the right buccal pouch mucosa with a skin puncher on Day 0 to give a 6 mm diameter wound. Four groups were intraperitoneally administered with 5-FU at 20 mg/kg twice at Day 0 and one group was used as a control without any treatment. […] Wounds were examined macroscopically and microscopically 0.5, 1, 2, 3, 4, 5, and 6 days after the punching. The hematological parameters, serum biochemistry, extents of inflammatory cell infiltration, sizes of hemorrhagic areas, and presence of ulcers and abscesses were recorded. After Day 6, all of the hamsters were anesthetized with isoflurane (2-chloro-2-difluoromethoxy-1,1,1-trifluoro-ethane) for macroscopic and histological analysis and Western blot analysis.

[3] = molecular target: histone deacetylase (HDAC); assay: HDAC inhibition assay (Fluor de Lys fluorescent assay, HeLa lysate); format: biochemical; details: mantissa in r5, exponent and unit in r6
Method: The histone deacetylase (HDAC) activity was measured in HeLa lysate suspensions using a Fluor de Lys™ fluorescent assay system (Biomol, Enzo Life Sciences; PA, USA) with some modification as described previously (Pflum et al., 2007). In brief, HeLa lysate (1.5 μl) were preincubated in the presence of test compound or vehicle (DMSO, 0.2% v/v) at 30° C. for 10 minutes, therefore Fluor de Lys™ substrate (125 μM) was added and incubated at 37° C. under shaking for 45 minutes. Finally, the developer reagent (95 μl, 1×) was immediately added to the same aliquot of the reaction mixture for another 10 minutes. The extent of deacetylated substrate formation was monitored by a microplate fluorescence reader (Thermo Varioskan Flash, Thermofisher; MA, USA) to determine the fluorescence intensity (excitation at 360 nm, emission at 460 nm). The results were expressed as the percent inhibition of the rate of deacetylated substrate formation on the reacting interval. […] See Bieliauskas et al., Bioorg. Med. Chem. Lett., 2007, 17: 2216-2219.

[4] = tested on: COX-2; assay: In vitro COX-2 protein expression (Western blot); format: cell-based; details: IMR90 cells; 0.05-1.0 μM; dose-dependent
Method: To detect COX-2 protein expression, Western blot analysis was performed as follows. Briefly, Compound 3-treated IMR90 cells, stimulated by wounds (scraping using a P1000 pipette tip) and non-stimulated, were collected and lysed in 1× lysis buffer. Protein concentrations of these lysed cells were measured using Bio-Rad quantification assay (Bio-Rad Laboratory, CA). Protein extracts (20 μg) were subjected to electrophoresis on a 10% SDS-PAGE and transferred to PVDF membrane. The antibody recognizing COX-2 was obtained from Epitomics (Burlingame, Calif.). The antibody recognizing β-actin was from obtained Sigma (St. Louis, Mo.). All antibodies were rabbit polyclonal antibodies except for the β-actin antibody, which was a mouse monoclonal antibody. Secondary antibodies were anti-rabbit IgG and anti-mouse IgG (horseradish-peroxidase linked antibodies), respectively (Amersham Biosciences, Piscataway, N.J.). Primary antibodies were used at a 1:1,000 dilution and secondary antibodies were used at a 1:5,000 dilution in a solution containing 5% BSA in TBS-T. Immunoreactive proteins were detected using the enhanced chemiluminescence light (ECL) detecting kit (Millipore).

| Structure (SMILES) | melting point | IC50 [3] | wound healing [1] | 5-FU-induced mucositis in wound areas [2] | COX-2 protein expression [4] |
| --- | --- | --- | --- | --- | --- |
| O=C(CCCc1ccccc1)NO [Compound 1, N-hydroxy-4-phenylbutanamide] | – | – | promoted wound healing | reduced 5-FU-induced mucositis | – |
| CC(C)(C)OC(=O)N[C@H](Cc1ccc(OCc2ccccc2)cn1)C(=O)Nc1ccc(CCCC(=O)NO)cc1 [Compound 3, (R)-tert-butyl 3-(5-(benzyloxy)pyridin-2-yl)-1-(4-(4-(hydroxylamino)-4-oxobutyl)phenylamino)-1-oxopropan-2-ylcarbamate] | – | 398 nM | promoted wound healing | reduced 5-FU-induced mucositis | inhibited COX-2 protein expression |
| CC(C)(C)OC(=O)NC(Cc1ccc(O)cn1)C(=O)Nc1ccc(CCCC(=O)NO)cc1 (stereo not shown) [Compound 4, tert-butyl-1-(4-(4-(hydroxyamino)-4-oxobutyl)phenylamino)-3-(5-hydroxypyridin-2-yl)-1-oxopropan-2-ylcarbamate] | 166 to 167 °C | 4130 nM | – | – | – |
| NC(Cc1ccc(O)cn1)C(=O)Nc1ccc(CCCC(=O)NO)cc1 (stereo not shown) [Compound 6, 4-(4-(2-amino-3-(5-hydroxypyridin-2-yl)-propanamido)phenyl)-N-hydroxybutanamide] | 230 °C (dec.) | – | – | – | – |

Continued, in another order:

| melting point | IC50 [3] | Structure (SMILES) | wound healing [1] | 5-FU-induced mucositis in wound areas [2] | COX-2 protein expression [4] |
| --- | --- | --- | --- | --- | --- |
| 95 to 96 °C | – | CC(C)(C(=O)NO)C(O)Cc1ccccc1 (stereo not shown) [Compound 2, N,3-dihydroxy-2,2-dimethyl-4-phenylbutanamide] | – | – | – |
| > 300 °C | – | NC(Cc1ccc(OCc2ccccc2)cn1)C(=O)Nc1ccc(CCCC(=O)NO)cc1 (stereo not shown) [Compound 5, 4-(4-(2-amino-3-(5-(benzyloxy)pyridin-2-yl)propanamido)phenyl)-N-hydroxybutanamide] | – | – | – |
| 106 to 108 °C | 1320 nM | CC(C)(C)OC(=O)NC(Cc1ccc(OCc2ccccc2)cn1)C(=O)NCc1ccc(C(=O)NO)cc1 (stereo not shown) [Compound 7, tert-butyl 3-(5-(benzyloxy)pyridin-2-yl)-1-(4-(hydroxycarbamoyl)benzylamino)-1-oxopropan-2-ylcarbamate] | – | – | – |
